From article PMC4978154, “Phase I metabolites of mephedrone display biological activity as substrates at monoamine transporters” (British Journal of Pharmacology, 2016)
Values joined by “and” are separate entries in the source; they are usually repeats but may differ in a detail not shown here. Identical values can stand only once.

Key:
Assay type in all cases: cell-based
hDAT [1] = target: T1, hDAT (Homo sapiens, UniProt Q01959); assay: Transporter release (superfusion) assay in HEK293 cells expressing hDAT
T1 construct: expressed in transfected cells
T1 sequence (Q01959 whole entry, the tested form may be a part): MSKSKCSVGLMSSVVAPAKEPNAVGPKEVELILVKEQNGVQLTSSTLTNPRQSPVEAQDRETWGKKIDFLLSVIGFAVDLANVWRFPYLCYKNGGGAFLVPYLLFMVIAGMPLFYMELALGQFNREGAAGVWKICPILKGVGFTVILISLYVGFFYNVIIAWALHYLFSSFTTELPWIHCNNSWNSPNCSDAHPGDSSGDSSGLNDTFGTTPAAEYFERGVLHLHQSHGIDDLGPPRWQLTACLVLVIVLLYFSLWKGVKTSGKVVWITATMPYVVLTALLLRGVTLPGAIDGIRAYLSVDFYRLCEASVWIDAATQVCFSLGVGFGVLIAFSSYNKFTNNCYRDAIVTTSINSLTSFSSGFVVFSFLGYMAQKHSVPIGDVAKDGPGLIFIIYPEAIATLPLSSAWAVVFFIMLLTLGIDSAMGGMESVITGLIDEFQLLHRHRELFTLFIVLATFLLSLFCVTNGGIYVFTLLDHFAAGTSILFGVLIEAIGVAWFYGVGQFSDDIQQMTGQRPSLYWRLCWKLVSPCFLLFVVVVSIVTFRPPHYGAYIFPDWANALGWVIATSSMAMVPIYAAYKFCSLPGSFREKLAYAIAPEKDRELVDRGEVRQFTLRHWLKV
Experimental: (§1) The generation of HEK293 cells stably expressing the human isoforms of DAT (hDAT) and NET (hNET) was carried out as described previously (Scholze et al., 2002). For SERT, the human isoform (hSERT) was cloned in frame with yellow fluorescent protein (Schmid et al., 2001). The generation of a stable cell line was performed as described by Hilber and colleagues (Hilber et al., 2005). HEK293 cells were maintained in humidified atmosphere (5% CO2, 37°C) in DMEM, supplemented with 10% heat‐inactivated FBS and penicillin (100 u 100 mL^−1) and streptomycin (100 μg 100 mL^−1). Selection pressure was maintained by adding geneticin (50 μg·mL^−1) to the cell culture media.
(§2) Superfusion experiments were performed as described previously (Scholze et al., 2002). Briefly, HEK293 cells expressing the desired transporter were seeded at a density of 40 000 cells per well onto poly‐D‐lysine‐coated 5 mm glass cover slips in 96‐well plates 24 h prior to the experiment. Cells were preloaded with [^3H]‐MPP^+ (0.1 μM, hDAT and hNET) or [^3H]‐5‐HT (0.4 μM, hSERT) for 20 min at 37°C in a final volume of 100 μL per well. Subsequently, glass coverslips were transferred into small superfusion chambers (volume of 200 μL) and superfused with KHB at 25°C with a superfusion rate of 0.7 mL·min^−1 for 40 min to establish a stable basal efflux. After washout, the collection of 2‐min fractions was initiated. After the first three basal fractions, monensin (10 μM) or solvent was added for four fractions. Consequently, the cells were challenged with test drugs (10 μM) for five fractions in the presence or absence of monensin. Finally, the cells were lysed in 1% SDS to determine the total radioactivity. Radioactivity per fraction was assessed by a liquid scintillation counter and expressed as fractional release, that is, the percentage of released ^3H in relation to total ^3H present at the beginning of the fraction (Sitte et al., 2000). For analysis, release was expressed as AUC.
(§3) Calculations were performed using Microsoft Excel® 2010 (Microsoft Corporation, Redmond, WA, USA) and GRAPHPAD PRISM 5.0. (GraphPad Software Inc., La Jolla, CA, USA). IC50 values for uptake inhibition and EC50 values for release were determined by nonlinear regression fits. Release data expressed as AUC were analysed by one‐way ANOVA followed by Bonferroni's multiple comparison test. Microdialysis and locomotor data were analysed by two‐way ANOVA (drug treatment × time) followed by Bonferroni's test. The effect of monensin treatment on basal efflux of tritiated substrate was analysed with the Mann–Whitney test. P values less than 0.05 (i.e. P < 0.05) were considered significant. The data and statistical analysis comply with the recommendations on experimental design and analysis in pharmacology (Curtis et al., 2015).
Data from uptake inhibition assays cannot distinguish whether test drugs act as non‐transported inhibitors or transportable substrates, which evoke release (Scholze et al., 2000; Sitte et al., 2000; Baumann et al., 2013). Therefore, mephedrone and its metabolites were tested in release assays to further explore their interaction with transporters. The release assays were performed with the same transporter‐expressing HEK293 cell lines described above and used a superfusion system (Sitte et al., 2000). As described previously, efflux of preloaded [^3H]‐MPP^+ or [^3H]‐5‐HT was monitored in the presence or absence of monensin (10 μM) (Scholze et al., 2000). […]

hSERT = target: T2, hSERT (Homo sapiens, UniProt P31645); assay: Transporter uptake inhibition in HEK293 cells expressing hSERT; settings: [3H]-5-HT uptake
T2 construct: yellow fluorescent protein (YFP); expressed in transfected cells
T2 sequence (P31645 whole entry): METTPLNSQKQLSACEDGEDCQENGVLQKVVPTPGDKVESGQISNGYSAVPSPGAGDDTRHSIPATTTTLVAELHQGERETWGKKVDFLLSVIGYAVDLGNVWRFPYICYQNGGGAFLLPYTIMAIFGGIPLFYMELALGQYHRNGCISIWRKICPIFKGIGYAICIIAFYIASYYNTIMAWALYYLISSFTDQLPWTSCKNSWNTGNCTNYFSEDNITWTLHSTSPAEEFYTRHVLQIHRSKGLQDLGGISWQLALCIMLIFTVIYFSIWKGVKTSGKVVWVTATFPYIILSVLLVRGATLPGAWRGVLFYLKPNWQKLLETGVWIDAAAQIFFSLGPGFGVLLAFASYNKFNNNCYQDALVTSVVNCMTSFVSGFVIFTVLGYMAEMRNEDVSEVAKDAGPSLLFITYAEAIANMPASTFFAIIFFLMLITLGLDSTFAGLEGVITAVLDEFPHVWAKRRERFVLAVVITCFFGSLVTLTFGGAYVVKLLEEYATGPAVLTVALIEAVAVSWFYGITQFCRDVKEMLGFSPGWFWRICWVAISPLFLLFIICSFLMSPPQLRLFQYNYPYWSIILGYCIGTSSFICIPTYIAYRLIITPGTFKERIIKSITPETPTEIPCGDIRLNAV
Experimental: as §1
(§4) Uptake experiments were conducted as described previously (Sitte et al., 2001) with minor modifications. In brief, HEK293 cells expressing hDAT, hNET or hSERT were seeded into poly‐D‐lysine (PDL) coated 96‐well plates at a density of 40 000 cells per well. The next day, DMEM was aspirated and replaced with Krebs HEPES buffer (KHB, 25 mM HEPES, 120 mM NaCl, 5 mM KCl, 1.2 mM CaCl2, and 1.2 mM MgSO4, 5 mM D‐glucose, pH adjusted to 7.3 with NaOH) (200 μL per well), and cells were pre‐incubated with various concentrations of mephedrone or its metabolites for 5 min (50 μL per well). Subsequently, 0.1 μM of [^3H]‐5‐HT or 0.02 μM of [^3H]‐MPP^+ were added, and uptake was terminated after 1 (hSERT) or 3 min (hDAT, hNET) by washing the cells with 200 μL of ice‐cold KHB. Cells were lysed with 1% SDS, and tritium uptake was determined by scintillation counting. Nonspecific uptake was determined in the presence of 10 μM paroxetine (hSERT) or 10 μM mazindol (hDAT and hNET).
as §3

hNET [2] = target: T3, hNET (Homo sapiens, UniProt P23975); assay: Transporter uptake inhibition in HEK293 cells expressing hNET; settings: [3H]-MPP+ uptake
T3 construct: expressed in transfected cells
T3 sequence (P23975 whole entry): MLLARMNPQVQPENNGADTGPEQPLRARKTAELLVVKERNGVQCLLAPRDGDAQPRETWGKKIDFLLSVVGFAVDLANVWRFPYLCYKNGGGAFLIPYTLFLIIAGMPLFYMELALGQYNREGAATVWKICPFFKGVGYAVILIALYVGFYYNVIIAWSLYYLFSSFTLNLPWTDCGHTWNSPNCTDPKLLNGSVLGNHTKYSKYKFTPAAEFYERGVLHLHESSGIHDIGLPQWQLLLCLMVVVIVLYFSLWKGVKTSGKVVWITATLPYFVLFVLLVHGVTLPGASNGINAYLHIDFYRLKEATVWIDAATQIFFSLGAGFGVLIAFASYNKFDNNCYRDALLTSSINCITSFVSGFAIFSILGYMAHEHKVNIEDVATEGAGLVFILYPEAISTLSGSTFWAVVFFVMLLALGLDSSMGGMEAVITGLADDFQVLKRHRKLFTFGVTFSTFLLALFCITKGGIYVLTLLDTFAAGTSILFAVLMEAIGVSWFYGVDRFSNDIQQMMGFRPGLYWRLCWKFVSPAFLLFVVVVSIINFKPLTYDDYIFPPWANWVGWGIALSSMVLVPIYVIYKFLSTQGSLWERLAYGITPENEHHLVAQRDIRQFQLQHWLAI
Experimental: as §1, §4
as §3, with “GRAPHPAD” left out

hNET [3] = target: T3, hNET; assay: Transporter release (superfusion) assay in HEK293 cells expressing hNET; settings: test drug 10 μM, monensin 10 μM; post hoc Bonferroni
Experimental: as §1
as §2, with “Consequently, the cells were challenged with test drugs (10 μM) for five fractions in the presence or absence of monensin.” left out
as §3, with “(GraphPad Software Inc., La Jolla, CA, USA).” left out, “P values less than 0.05 (i.e. P < 0.05) were considered significant. The data and statistical analysis comply with the recommendations on experimental design and analysis in pharmacology (Curtis et al., 2015).” left out
Data from uptake inhibition assays cannot distinguish whether test drugs act as non‐transported inhibitors or transportable substrates, which evoke release (Scholze et al., 2000; Sitte et al., 2000; Baumann et al., 2013). […] As described previously, efflux of preloaded [^3H]‐MPP^+ or [^3H]‐5‐HT was monitored in the presence or absence of monensin (10 μM) (Scholze et al., 2000). […]

hDAT [4] = target: T1, hDAT; assay: Transporter uptake inhibition in HEK293 cells expressing hDAT; settings: [3H]-MPP+ uptake
Experimental: as §1, §4, §3

SMILES | effect of monensin alone on substrate release (basal efflux) (hDAT [1]; monensin 10 μM alone, P < 0.05, Mann–Whitney test) | IC50 (hSERT; IC50 on uptake mediated by hSERT, mean (95% confidence interval)) [µM] | efficacy of uptake inhibition at hSERT (hSERT) | enhancement by monensin of drug-evoked [3H]-MPP+ release at hDAT (AUC) (hDAT [1]; test drug 10 μM, monensin 10 μM, post hoc Bonferroni) | IC50 (hNET [2]; IC50 on uptake mediated by hNET, mean (95% confidence interval)) | efficacy of uptake inhibition at hNET (hNET [2]) | enhancement by monensin of drug-evoked [3H]-MPP+ release at hNET (AUC) (hNET [3]) | IC50 (hDAT [4]; IC50 on uptake mediated by hDAT, mean (95% confidence interval)) [µM] | efficacy of uptake inhibition at hDAT (hDAT [4])
CC[C@@]1([C@@H]2O[C@@H]([C@H]3O[C@@](O)(CO)[C@H](C)C[C@@H]3C)C[C@@H]2C)CC[C@H]([C@]2(C)CC[C@]3(C[C@H](O)[C@@H](C)[C@@H]([C@@H](C)[C@@H](OC)[C@H](C)C(=O)O)O3)O2)O1 [monensin, reference compound] | significant albeit modest increase | – | – | – | – | – | – | – | –
CNC(C)C(O)c1ccc(C)cc1.Cl (stereo not drawn) [Dihydromephedrone, 2‐(methylamino)‐1‐(p‐tolyl)propan‐1‐ol hydrochloride] | – | 65 | fully efficacious inhibitors of uptake | not | 24 µM and 23.5 µM | fully efficacious inhibitors of uptake | not | 24 | fully efficacious inhibitors of uptake
